We go through 4 compounds from article PMC8490401, “Chemical proteomic profiling reveals protein interactors of the alarmones diadenosine triphosphate and tetraphosphate” (Nature Communications, 2021).

The target in assay [1] is T1, decapping scavenger protein (DcpS) (Homo sapiens, UniProt Q96C86).
T1 construct: His-tagged DcpS
T1 sequence (Q96C86 2-337): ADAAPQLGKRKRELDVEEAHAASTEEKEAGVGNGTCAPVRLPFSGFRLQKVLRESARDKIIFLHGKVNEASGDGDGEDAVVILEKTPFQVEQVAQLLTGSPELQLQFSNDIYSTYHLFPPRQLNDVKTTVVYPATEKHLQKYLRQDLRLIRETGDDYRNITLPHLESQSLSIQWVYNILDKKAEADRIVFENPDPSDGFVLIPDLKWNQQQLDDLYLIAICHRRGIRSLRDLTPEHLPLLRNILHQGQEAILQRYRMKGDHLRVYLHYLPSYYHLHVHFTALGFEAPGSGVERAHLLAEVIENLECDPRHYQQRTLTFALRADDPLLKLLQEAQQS
Description: HPLC assay: Ap3A hydrolysed by purified DcpS and slows m7Gp3G cleavage. In kind it is biochemical.

For assay [2], the target named is T1, decapping scavenger protein (DcpS). Description: HPLC assay: Ap4A hydrolysed by purified DcpS and slows m7Gp3G cleavage. In kind it is biochemical.
For the next assay, the target named is LDHA (Homo sapiens, UniProt P00338). Description: fluorescence polarization, direct titration of purified protein. In kind it is binding. (In general: In fluorescence polarisation assays a small probe gives low polarisation when free and higher when bound to something large.)
The target of the next assay is T2, PGK1 (Homo sapiens, UniProt P00558).
T2 sequence (P00558 2-417): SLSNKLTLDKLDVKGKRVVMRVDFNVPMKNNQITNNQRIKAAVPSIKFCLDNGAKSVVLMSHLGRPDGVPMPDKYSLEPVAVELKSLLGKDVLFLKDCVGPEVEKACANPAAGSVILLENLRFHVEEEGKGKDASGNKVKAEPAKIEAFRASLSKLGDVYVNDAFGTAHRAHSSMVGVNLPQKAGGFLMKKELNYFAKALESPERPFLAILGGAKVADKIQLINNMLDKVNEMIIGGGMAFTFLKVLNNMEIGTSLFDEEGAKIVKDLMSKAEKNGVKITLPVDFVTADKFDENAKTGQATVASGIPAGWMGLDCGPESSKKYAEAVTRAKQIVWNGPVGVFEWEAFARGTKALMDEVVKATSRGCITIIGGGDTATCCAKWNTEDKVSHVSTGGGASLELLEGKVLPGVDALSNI
The assay is described as above. It counts as binding.

Assay [3] addresses T1, decapping scavenger protein (DcpS). Description: HPLC cleavage assay with purified DcpS. It counts as biochemical.

Take `Nc1ncnc2c1ncn2[C@@H]1O[C@H](COP(=O)(O)OP(=O)(O)OP(=O)(O)OC[C@H]2O[C@@H](n3cnc4c(N)ncnc43)[C@H](O)[C@@H]2O)[C@@H](O)[C@H]1O` [Ap3A, diadenosine triphosphate]: the “HPLC assay: Ap3A hydrolysed by purified DcpS and slows m7Gp3G cleavage” value in assay [1] was “demonstrating that both Ap3A and Ap4A can be cleaved by DcpS”. For `Nc1ncnc2c1ncn2[C@@H]1O[C@H](COP(=O)(O)OP(=O)(O)OP(=O)(O)OP(=O)(O)OC[C@H]2O[C@@H](n3cnc4c(N)ncnc43)[C@H](O)[C@@H]2O)[C@@H](O)[C@H]1O` [Ap4A, diadenosine tetraphosphate], the “HPLC assay: Ap4A hydrolysed by purified DcpS and slows m7Gp3G cleavage” value in assay [2] is “demonstrating that both Ap3A and Ap4A can be cleaved by DcpS”.

By Kd is commonly meant a measure of binding affinity in units of concentration. Read a low Kd as higher affinity. Take `Nc1ncnc2c1ncn2[C@@H]1O[C@H](COP(=O)(O)OP(=O)(O)OP(=O)(O)OC[C@H]2O[C@@H](n3cnc4c(N)nc(C#CCCCNC(=O)c5ccc6c(c5)C(=O)OC65c6ccc(O)cc6Oc6cc(O)ccc65)nc43)[C@H](O)[C@@H]2O)[C@@H](O)[C@H]1O` [F-Ap3A]: the Kd on LDHA came to 35.3 ± 0.69 µM; at PGK1, 37.4 ± 1.62 µM.

For the compound `C[n+]1cn([C@@H]2O[C@H](COP(=O)(O)OP(=O)([O-])OP(=O)(O)OC[C@H]3O[C@@H](n4cnc5c(=O)[nH]c(N)nc54)[C@H](O)[C@@H]3O)[C@@H](O)[C@H]2O)c2nc(N)[nH]c(=O)c21` [m^7Gp3G], the “HPLC cleavage assay with purified DcpS” value in assay [3] is given as “HPLC profiles for the hydrolysis of m^7Gp3G (peak c) catalyzed by DcpS”.
